One may read the Ki as a dissociation constant, usually derived from enzyme kinetics or from competition with a known ligand. A higher Ki goes with lower affinity.

Here are results for 26 compounds from ChEMBL document CHEMBL1147502, “Isopropyl amide derivatives of potent and selective muscarinic M2 receptor antagonists” (Bioorg Med Chem Lett, 2004).

The target of the assay is T1, Muscarinic acetylcholine receptor M2 (Homo sapiens, UniProt P08172).
T1 sequence (P08172 whole entry): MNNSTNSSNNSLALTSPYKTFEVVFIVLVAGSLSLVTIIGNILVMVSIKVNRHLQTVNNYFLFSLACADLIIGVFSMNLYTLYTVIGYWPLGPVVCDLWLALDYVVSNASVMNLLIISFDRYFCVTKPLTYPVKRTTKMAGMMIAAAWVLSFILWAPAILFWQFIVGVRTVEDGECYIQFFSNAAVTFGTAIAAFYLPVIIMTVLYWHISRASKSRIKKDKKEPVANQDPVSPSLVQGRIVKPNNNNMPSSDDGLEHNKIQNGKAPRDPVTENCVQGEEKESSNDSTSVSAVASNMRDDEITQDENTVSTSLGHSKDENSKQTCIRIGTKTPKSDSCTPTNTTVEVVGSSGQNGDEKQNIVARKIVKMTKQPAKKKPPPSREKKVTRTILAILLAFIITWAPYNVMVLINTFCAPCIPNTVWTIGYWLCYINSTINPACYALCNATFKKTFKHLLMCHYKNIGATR
Description: Binding affinity against cloned human muscarinic acetylcholine receptor M2.
`CC(C)NC(=O)c1ccc(CC2CCN(C3CCN(C(=O)c4cccc5nc[nH]c45)CC3)CC2)cc1` came in with a Ki of 27 nM. In other words, the double-digit nanomolar range.
The value for `CC(C)NC(=O)c1ccc(CC2CCN(C3CCN(C(=O)c4ccccc4Cl)CC3)CC2)cc1` was 12 nM; that for `CC(C)(C)NC(=O)c1ccc(CC2CCN(C3CCN(C(=O)c4ccc(F)c5ccccc45)CC3)CC2)cc1` was 18 nM.
The value for `CC(C)S(=O)(=O)c1ccc(CC2CCN(C3CCN(C(=O)c4ccc(F)c5ccccc45)CC3)CC2)cc1` was 17 nM; that for `CC(C)NC(=O)c1ccc(CC2CCN(C3CCN(C(=O)c4ccc(F)c5ccccc45)CC3)CC2)cc1` was 2.1 nM; that for `O=C(NC1CCCCC1)c1ccc(CC2CCN(C3CCN(C(=O)c4ccc(F)c5ccccc45)CC3)CC2)cc1` was 1300 nM.
Consider `CC(C)NC(=O)c1ccc(CC2CCN(C3CCN(C(=O)c4cccc5[nH]ccc45)CC3)CC2)cc1`, for which the Ki came to 1.6 nM. This Ki lies about 810-fold lower than the previous one.
The value for `CC(C)NC(=O)c1ccc(CC2CCN(C3CCN(C(=O)c4ccc(F)c5c(F)cccc45)CC3)CC2)cc1` was 9 nM.
The value for `Cc1ccccc1C(=O)N1CCC(N2CCC(C3(c4ccc(C(=O)NC(C)C)cc4)OCCO3)CC2)CC1` was 9 nM; that for `Cc1cccc(C(=O)N2CCC(N3CCC(Cc4ccc(C(=O)NC(C)C)cc4)CC3)CC2)c1N` was 9 nM.
Consider `O=C(Nc1ccccc1)c1ccc(CC2CCN(C3CCN(C(=O)c4ccc(F)c5ccccc45)CC3)CC2)cc1`, for which the affinity, expressed as Ki, was 104 nM.
For the compound `Cc1c(N)cccc1C(=O)N1CCC(N2CCC(Cc3ccc(C(=O)NC(C)C)cc3)CC2)CC1`, the inhibitory constant (Ki) amounted to 1.6 nM.
Compound `CC(C)NC(=O)c1ccc(CC2CCN(C3CCN(C(=O)c4ccccc4N)CC3)CC2)cc1` showed a Ki of 78 nM.
The value for `CC(C)NC(=O)c1ccc(C2(C3CCN(C4CCN(C(=O)c5ccccc5Cl)CC4)CC3)OCCO2)cc1` was 35 nM.
The value for `CC(C)NC(=O)c1ccc(CC2CCN(C3CCN(C(=O)c4ccnc5ccccc45)CC3)CC2)cc1` was 40 nM.
The value for `CC(C)NC(=O)c1ccc(C2(C3CCN(C4CCN(C(=O)c5cccc6[nH]ccc56)CC4)CC3)OCCO2)cc1` was 1.1 nM.
For the compound `Cc1ccccc1C(=O)N1CCC(N2CCC(Cc3ccc(C(=O)Nc4ccccc4)cc3)CC2)CC1`, the Ki amounted to 122 nM.
The value for `CC(C)NC(=O)c1ccc(C2(C3CCN(C4CCN(C(=O)c5ccc(F)c6ccccc56)CC4)CC3)OCCO2)cc1` was 2.4 nM; that for `CC(C)NC(=O)c1ccc(CC2CCN(C3CCN(C(=O)c4ccc5[nH]ccc5c4)CC3)CC2)cc1` was 5 nM.
Regarding `CC(C)NC(=O)c1ccc(CC2CCN(C3CCN(C(=O)c4c[nH]c5ccccc45)CC3)CC2)cc1`, affinity was put at a Ki of 6 nM.
The value for `Cc1cccc(C(=O)N2CCC(N3CCC(C4(c5ccc(C(=O)NC(C)C)cc5)OCCO4)CC3)CC2)c1N` was 2.7 nM; that for `CC(C)NC(=O)c1ccc(CC2CCN(C3CCN(C(=O)c4cccc5c(F)cc(F)cc45)CC3)CC2)cc1` was 5 nM.
The value for `Cc1ccccc1C(=O)N1CCC(N2CCC(Cc3ccc(C(=O)NC(C)(C)C)cc3)CC2)CC1` was 106 nM; that for `Cc1ccccc1C(=O)N1CCC(N2CCC(Cc3ccc(C(=O)NC(C)C)cc3)CC2)CC1` was 7 nM; that for `Cc1c(N)cccc1C(=O)N1CCC(N2CCC(C3(c4ccc(C(=O)NC(C)C)cc4)OCCO3)CC2)CC1` was 1.9 nM.
The value for `Cc1ccccc1C(=O)N1CCC(N2CCC(Cc3ccc(C(=O)NC4CCCCC4)cc3)CC2)CC1` was 15 nM.
